Data published in US11034725B2, “Compositions and methods for treating cardiovascular disease” (Genentech, Inc., priority 2016, dated 2021).
Entries after “also recorded” stand apart in the source; their conditions may differ. Read-outs that look alike come from different tables or passages of the source. Bridge positions count the residues as written; N and C are the ends. Peptide text beside a SMILES is read from it. * marks the point of attachment. 5FAM = O=C1OC2(c3ccc(O)cc3Oc3cc(O)ccc32)c2ccc(C(=O)*)cc21

Assays:
[1] = molecular target: T1, PCSK9Δhelix (Homo sapiens, UniProt Q8NBP7); assay: Surface plasmon resonance biosensor-based affinity analysis (Example 4); type: binding; settings: for Kd: Table 7, Target PCSK9Δhelix, SPR at 20° C., read-out: Kd
T1 construct: Human PCSK9 construct M1-Q692 with an engineered TEV site (residue deletion Y166, R167); made in house; host or cells: CHO

[2] = molecular target: T1, PCSK9Δhelix; assay: PCSK9Δhelix/Ab20 TR-FRET binding assay; settings: for IC50: TR-FRET, read-out: PCSK9Δhelix/Ab20 IC50
[3] = tested on: His-EGF(A)-Fc; assay: His-EGF(A)-Fc TR-FRET counterscreen
[4] = molecular target: PCSK9 (Homo sapiens, UniProt Q8NBP7); assay: PCSK9/EGF(A) TR-FRET binding assay; settings: for IC50: TR-FRET, read-out: PCSK9/EGF(A) IC50
[5] = molecular target: T2, PCSK9-R167A:R215A:R218A (PCSK9-AAA) (Homo sapiens, UniProt Q8NBP7, R167A/R215A/R218A); assay: FXIa cleavage assay of the P′ helix of PCSK9-AAA; type: biochemical; settings: immunoblot with anti-N-terminal peptide antibody
T2 construct: made in house; host or cells: CHO (transient)
Experimental: The PCSK9-AAA mutant (2.6 μM) was incubated with 50 nM FXIa (Haematologic Technologies) in Tris buffer (50 mM Tris, 150 mM NaCl, 4 mM CaCl2, pH 8.0) at room temperature for the indicated time periods. […] After SDS-PAGE of the samples, proteins were transferred to a nitrocellulose membrane using iBlot (Invitrogen). Proteins were then probed with a polyclonal rabbit antibody (1:3000) raised against the PCSK9 N-terminal peptide (^153[…]^168 (SEQ ID NO: 5)), followed with HRP-conjugated donkey anti-rabbit antibody (1:5000, GE Healthcare) using iBind (Invitrogen). PCSK9 signals were detected by ECL (GE Healthcare) and visualized by autoradiography.
Proteins were then probed with a polyclonal rabbit antibody (1:3000) raised against the PCSK9 N-terminal peptide (^153[…]^168 (SEQ ID NO: 5)), followed with HRP-conjugated donkey anti-rabbit antibody (1:5000, GE Healthcare) using iBind (Invitrogen). PCSK9 signals were detected by ECL (GE Healthcare) and visualized by autoradiography.

[6] = Table 8D, disulfide-cyclized extension peptides
[7] = TR-FRET counterscreen, Table 8D, * = some inhibition at highest concentrations, not sufficient to fit an IC50
[8] = TR-FRET counterscreen, Table 8E, additional compounds

Compound: CC[C@H](C)[C@@H]1NC(=O)[C@H](CCCNC(=N)N)NC(=O)[C@H](CCCCN)NC(=O)[C@H](CC(C)C)NC(=O)[C@H](CC(N)=O)NC(=O)[C@H](Cc2c[nH]c3ccccc23)NC(=O)[C@@H](NC(=O)CNC(=O)[C@H](CO)NC(=O)CNC(=O)[C@@H](NC(=O)[C@H](Cc2c[nH]c3ccccc23)NC(=O)[C@H](CC(=O)O)NC(=O)[C@H](CC(C)C)NC(=O)[C@H](Cc2ccc(O)cc2)NC(=O)[C@H](CCC(=O)O)NC(=O)[C@H](CCC(=O)O)NC(=O)[C@H](Cc2c[nH]c3ccccc23)NC(=O)[C@H](CO)NC(=O)[C@@H](NC(=O)[C@H](Cc2ccccc2)NC(=O)[C@@H](NC(=O)[C@@H](NC(C)=O)[C@@H](C)O)C(C)C)[C@@H](C)O)C(C)C)CSSC[C@@H](C(N)=O)NC(=O)CNC(=O)[C@H](CCC(N)=O)NC(=O)[C@H](CO)NC(=O)CNC1=O [Compound 2] (Ac-TVFTSWEEYLDWVGSGCWNLKRIGSQGC-NH2; disulfide 17-28)
- Kd [1]: 0.00187 µM
- IC50 ([2]; Example 7): 0.004 µM
- IC50 ([3]; counterscreen, Example 7): > 50 µM

Compound: CC[C@H](C)[C@@H]1NC(=O)[C@H](CCCNC(=N)N)NC(=O)[C@H](CCCCN)NC(=O)[C@H](CC(C)C)NC(=O)[C@H](CC(N)=O)NC(=O)[C@H](Cc2c[nH]c3ccccc23)NC(=O)[C@@H](NC(=O)CCCCCNC(=O)[C@@H](NC(=O)[C@H](Cc2c[nH]c3ccccc23)NC(=O)[C@H](CC(=O)O)NC(=O)[C@H](CC(C)C)NC(=O)[C@H](Cc2ccc(O)cc2)NC(=O)[C@H](CCC(=O)O)NC(=O)[C@H](CCC(=O)O)NC(=O)[C@H](Cc2c[nH]c3ccccc23)NC(=O)[C@H](CO)NC(=O)[C@@H](NC(=O)[C@H](Cc2ccccc2)NC(=O)[C@@H](NC(=O)[C@@H](NC(C)=O)[C@@H](C)O)C(C)C)[C@@H](C)O)C(C)C)CSSC[C@@H](C(N)=O)NC(=O)CNC(=O)[C@H](CCC(N)=O)NC(=O)[C@H](CO)NC(=O)CNC1=O [Compound 17]
- Kd range for PCSK9Δhelix binding [1]: sub-nanomolar range
- Kd [1]: 0.000123 µM
- inhibition in the PCSK9/EGF(A) binding assay [4]: maintained potency
- IC50 ([4]; Example 7): 0.009 µM
- inhibition in the PCSK9Δhelix/Ab20 binding assay [2]: maintained potency
- IC50 ([2]; Example 7): 0.001 µM
- IC50 ([3]; counterscreen, Example 7): > 50 µM

Compound: CC[C@H](C)[C@@H]1NC(=O)[C@H](CCCNC(=N)N)NC(=O)[C@H](CCC(N)=O)NC(=O)[C@H](CC(C)C)NC(=O)[C@H](CC(N)=O)NC(=O)[C@H](Cc2c[nH]c3ccccc23)NC(=O)[C@@H]2CCCN2C(=O)[C@H]([C@@H](C)CC)NC(=O)[C@H](Cc2ccccc2)NC(=O)[C@@H](NC(=O)CNC(=O)[C@H](CO)NC(C)=O)CSSC[C@@H](C(N)=O)NC(=O)[C@H](CC(C)C)NC(=O)[C@H](CC(C)C)NC(=O)CNC1=O [Compound 29] (Ac-SGCFIPWNLQRIGLLC-NH2; disulfide 3-16)
- IC50 [4, 6]: > 50 µM
- IC50 [2, 6]: 1.9 µM
- IC50 [3, 7]: > 50 µM
- effect on FXIa-mediated cleavage of the P′ helix of PCSK9-AAA [5]: accelerated the cleavage reaction; also recorded: able to increase the FXIa-mediated cleavage; also recorded: strongly accelerated the cleavage

Compound: CC[C@H](C)[C@@H]1NC(=O)[C@H](CCCNC(=N)N)NC(=O)[C@H](CCC(N)=O)NC(=O)[C@H](CC(C)C)NC(=O)[C@H](CC(N)=O)NC(=O)[C@H](Cc2c[nH]c3ccccc23)NC(=O)[C@@H]2CCCN2C(=O)[C@H]([C@@H](C)CC)NC(=O)[C@H](Cc2ccccc2)NC(=O)[C@@H](NC(C)=O)CSSC[C@@H](C(N)=O)NC(=O)[C@H](CC(C)C)NC(=O)[C@H](CC(C)C)NC(=O)CNC1=O [Compound 31] (Ac-CFIPWNLQRIGLLC-NH2; disulfide 1-14)
- Kd [1]: 3.01 µM
- IC50 [4, 6]: > 50 µM
- IC50 [2, 6]: 2.4 µM
- IC50 [3, 7]: > 50 µM

Compound: CC[C@H](C)[C@@H]1NC(=O)[C@H](CCCNC(=N)N)NC(=O)[C@H](CCC(N)=O)NC(=O)[C@H](CC(C)C)NC(=O)[C@H](CC(N)=O)NC(=O)[C@H](Cc2c[nH]c3ccccc23)NC(=O)[C@@H]2CCCN2C(=O)[C@H]([C@@H](C)CC)NC(=O)[C@H](Cc2ccccc2)NC(=O)[C@@H](NC(=O)CNC(=O)[C@H](CO)NC(=O)CNC(=O)[C@H](CO)NC(=O)c2ccc3c(c2)C(=O)OC32c3ccc(O)cc3Oc3cc(O)ccc32)CSSC[C@@H](C(N)=O)NC(=O)[C@H](CC(C)C)NC(=O)[C@H](CC(C)C)NC(=O)CNC1=O [Compound 33] (5FAM-SGSGCFIPWNLQRIGLLC-NH2; disulfide 5-18)
- Kd [1]: 10 µM

Compound: CC[C@H](C)[C@@H]1NC(=O)[C@H](CCCNC(=N)N)NC(=O)[C@H](CCCCN)NC(=O)[C@H](CC(C)C)NC(=O)[C@H](CC(N)=O)NC(=O)[C@H](Cc2c[nH]c3ccccc23)NC(=O)[C@H](CC(C)C)NC(=O)[C@@H](NC(=O)[C@H](Cc2ccccc2)NC(C)=O)CSSC[C@@H](C(=O)N[C@@H](Cc2c[nH]c3ccccc23)C(=O)N[C@@H](Cc2ccccc2)C(N)=O)NC(=O)[C@H](CCC(N)=O)NC(=O)[C@H](C)NC(=O)CNC1=O [Compound 96] (Ac-FCLWNLKRIGAQCWF-NH2; disulfide 2-13 (inferred))
- Kd [1]: 2.5 µM

Compound: Ac-ALMPWNLVRIGLLR-NH2 [Compound 45]
- Kd [1]: 8.2 µM
- IC50 ([4]; Example 7): > 50 µM
- IC50 ([2]; Example 7): 2.02 µM
- IC50 ([3]; counterscreen, Example 7): > 50 µM

Compound: Ac-DLMPWNLVRIALLR-NH2 [Compound 57]
- IC50 ([4]; Example 7): > 50 µM
- IC50 ([2]; Example 7): > 49.5 µM
- IC50 ([3]; counterscreen, Example 7): > 50 µM

Compound: Ac-DLMPWNLVRIG-NH2 [Compound 48]
- IC50 ([4]; Example 7): > 50 µM
- IC50 ([2]; Example 7): ≥ 49.5 µM
- IC50 ([3]; counterscreen, Example 7): > 50 µM

Compound: Ac-DLMPWNLVRIGALR-NH2 [Compound 56]
- IC50 ([4]; Example 7): > 50 µM
- IC50 ([2]; Example 7): 17.1 µM
- IC50 ([3]; counterscreen, Example 7): > 50 µM

Compound: Ac-DLMPWNLVRIGL-NH2 [Compound 47]
- IC50 ([4]; Example 7): > 50 µM
- IC50 ([2]; Example 7): 12.6 µM
- IC50 ([3]; counterscreen, Example 7): > 50 µM

Compound: Ac-DLMPWNLVRIGLAR-NH2 [Compound 55]
- Kd [1]: 2.8 µM
- IC50 ([4]; Example 7): > 50 µM
- IC50 ([2]; Example 7): 9.7 µM
- IC50 ([3]; counterscreen, Example 7): > 50 µM

Compound: Ac-DLMPWNLVRIGLL-NH2 [Compound 46]
- IC50 ([4]; Example 7): > 50 µM
- IC50 ([2]; Example 7): 14 µM
- IC50 ([3]; counterscreen, Example 7): > 50 µM

Compound: Ac-DLMPWNLVRIGLLA-NH2 [Compound 54]
- IC50 ([4]; Example 7): > 50 µM
- IC50 ([2]; Example 7): 15.4 µM
- IC50 ([3]; counterscreen, Example 7): > 50 µM

Compound: Ac-DLMPWNLVRIGLPR-NH2 [Compound 160]
- IC50 ([4]; Table 8E, additional compounds): ≥ 50 µM
- IC50 ([2]; Table 8E, additional compounds): 19 µM
- IC50 [3, 8]: ≥ 50 µM

Compound: Ac-GGMPWNLVRIGLLR-NH2 [Compound 125]
- IC50 ([4]; Table 8E, additional compounds): ≥ 50 µM
- IC50 ([2]; Table 8E, additional compounds): 7 µM
- IC50 [3, 8]: ≥ 50 µM

Compound: Ac-GLMPWNLVRIGLLR-NH2 [Compound 124]
- IC50 ([4]; Table 8E, additional compounds): ≥ 50 µM
- IC50 ([2]; Table 8E, additional compounds): 3.9 µM
- IC50 [3, 8]: ≥ 50 µM

Compound: Ac-PWNLVRIGL-NH2 [Compound 119]
- IC50 ([4]; Example 7): > 50 µM
- IC50 ([2]; Example 7): ≥ 49.5 µM
- IC50 ([3]; counterscreen, Example 7): > 50 µM

Compound: Ac-SGDLMPWNLVRIGLLR-NH2 [Compound 122]
- IC50 ([4]; Table 8E, additional compounds): ≥ 50 µM
- IC50 ([2]; Table 8E, additional compounds): 5.6 µM
- IC50 [3, 8]: ≥ 50 µM

Compound: Ac-TVATSAEEYLLWV-NH2 [Pep2-8-ctrl, reference compound]
- effect on FXIa-mediated cleavage of the P′ helix of PCSK9-AAA [5]: did not prevent cleavage
- effect on FXIa-mediated cleavage of the P′ helix of PCSK9-AAA ([5]; listed as control peptide): did not inhibit cleavage

Compound: Ac-TVFTSWEEYLDWVGSGGKLWNLGRV-NH2 [Compound 9]
- IC50 ([4]; Example 7): 0.39 µM
- IC50 ([2]; Example 7): 0.065 µM
- IC50 ([3]; counterscreen, Example 7): > 50 µM

Compound: Ac-TVFTSWEEYLDWVGSGKLWN-NH2 [Compound 7]
- IC50 ([4]; Example 7): 0.5 µM
- IC50 ([2]; Example 7): 18.6 µM
- IC50 ([3]; counterscreen, Example 7): > 50 µM

Compound: Ac-TVFTSWEEYLDWVGSGKLWNLGRV-NH2 [Compound 1]
- inhibition in the PCSK9/EGF(A) binding assay [4]: comparable activity to Pep2-8
- inhibition in the PCSK9Δhelix/Ab20 binding assay [2]: superior activity
- IC50 ([2]; Example 7): 0.021 µM
- IC50 ([3]; counterscreen, Example 7): > 50 µM

Compound: Ac-WNLVRIGL-NH2 [Compound 120]
- IC50 ([4]; Example 7): > 50 µM
- IC50 ([2]; Example 7): ≥ 49.5 µM
- IC50 ([3]; counterscreen, Example 7): > 50 µM

Compound: EGFA-Fc: Fc fusion protein of the EGFA domain of LDLR
- effect on FXIa-mediated cleavage of the P′ helix of PCSK9-AAA [5]: largely prevented cleavage

Compound: H-SGDLMPWNLVRIGLLR-OH [Compound 28]
- Kd [1]: 0.856 µM
